Results: patent US9995679B2, “Targeted probes of cellular physiology” (Carnegie Mellon University, priority 2010, dated 2018)
“Also recorded” adds a separate entry of the source.

Columns and labels:
[1] = system: selected modules (FAP) that activate malachite green; experiment: Fluorogen activation by selected FAP modules (switching ratio); type: biochemical; conditions: in buffer
Description: Malachite green can serve as an acceptor, as we already have selected modules that activate it with switching ratios of >15,000 fold in buffer. Additional fluorogens may be designed and synthesized. Unsymmetric polymethine dyes, and analogs of indocyanine green may be used as fluorogens, as can many of the polarity sensing dyes (e.g. merocyanine and styryl dyes) with far-red and near IR emission. Fluorogens are screened for nonspecific activation in cell lysate before incorporation into the biosensor composition. Quenching and activation by selected FAP modules are characterized in buffer and cell lysate to determine the activation ratio. FAP/biosensor pairs with acceptable switching ratios are characterized by FCS and TIRF-single molecule microscopy.

[2] = system: malachite green binding FAP clone; experiment: Fluorescence correlation spectroscopy (FCS) of dye with MG-binding FAP; conditions: 500-fold molar excess of protein, FIG. 6
Description: To assess the feasibility of this approach, two key criteria have been met. First, the spectral properties of Rhod-2 are almost identical to the CY3 that has already been used as a successful donor molecule. Second, the rhodamine moiety, which is structurally similar to malachite green, has been shown not to bind or block binding of the MG-binding FAP module. […] These findings support the design of this probe.

[3] = Calcium titration curve of MG-PEG7-Rhod2 sodium salt with dL5, fluorescence by plate reader; type: binding; conditions: with dL5 (tandem dimer of L5-MG E52D L91S); free Ca 0-39 μM calibration buffers; FIG. 15
Procedure: A calcium titration curve for MG-PEG7-Rhod2 sodium salt (compound 18 of Example 8, was measured.
Compound 18 and 2 μL of dL5 (A tandem dimer of L5-MG E52D L91S (FIG. 1A) separated by a G4S linker) is dissolved in each 600 μL of 0 calcium solution^1 (solution A, Invitrogen™ Cat. no. C-3008MP Calcium Calibration Buffer Kit #1) and 600 μL 39 calcium solution (solution B, Invitrogen™ Cat. no. C-3008MP Calcium Calibration Buffer Kit #1). Each volume of A and B solutions was added into 96 well black plate as described in Table 1.
And then, each solution was measured fluorescence by plate reader (TECAN safire2).

Compound: CN(C)c1ccc(C(=C2C=CC(=[N+](C)C)C=C2)c2ccccc2)cc1 [Malachite green]
- switching ratio (fluorescence activation by FAP) [1]: > 15,000 fold

Compound: CCN(CC)c1ccc2c(-c3ccccc3C(=O)O)c3ccc(=[N+](CC)CC)cc-3oc2c1.[Cl-] [rhodamine B]
- binding to / inhibition of MG binding of the malachite green binding FAP [2]: does not associate with the malachite green binding clone; also recorded: neither binds to nor inhibits normal binding

Compound: MG-PEG7-Rhod2 Sodium Salt [Compound 18]
- mid-point for calcium binding (ratio of rhod2 excitation peak to MG excitation peak at ~640 nm vs free calcium) [3]: 0.5 micro molar
